Measurements: US12576047B2, “Telomerase activating compounds for use in fertility and related applications” (Neuromagen Pharma Ltd, priority 2017, dated 2026)

Legend:
[1] = system: mouse ovary; test: Hematoxylin-eosin histology of mouse ovary; type: in vivo; conditions: for ovary histology: 6 mg/Kg single dose at Di-estrus stage; for ovary histology / ovary histology (follicles, granulosa cells): 12 hours; for ovary histology (follicles, granulosa cells): 6 mg/Kg single dose at met-estrus stage; for ovary histology (corpus luteum): 6 mg/Kg single dose at pro-estrus and estrus stages, 12 hrs
Description: The ovaries were weighted; one was taken for protein extraction for measuring telomerase activity by TRAP assay, and the other one for the histological examination using hematoxylin-eosin staining of the ovary and its follicles.
The mice ovaries were removed and fixed with 4% paraformaldehyde overnight, dehydrated in increasing ethanol concentrations to xylene, and embedded in paraffin. A rotary microtome was used to produce 5 μm sections, which were mounted on Superfrost plus slides. The sections were dried and heated at 37° C. overnight and stored in dry place. Paraffin-embedded sections were deparaffinized in xylene and rehydrated in decreasing concentrations of ethanol. Then the sections stained with hematoxylin-eosin or subjected to immunochemical and Immunofluorescent assays [Liani-Leibson, K., I. Har-Vardi, and E. Priel, Inhibition of topoisomerase I by anti-cancer drug altered the endometrial cyclicity and receptivity. Curr Mol Med, 2014. 14(1): p. 141-50].

[2] = system: mouse testes; test: H&E histology of testes after X-ray radiation; type: in vivo; conditions: X-ray 2.5 Gy then injection, 12 hrs
Description: (§1) Toward this end, ICR mice (3 months old) were injected with 6 mg/kg of Compound 79, Compound 68 or Compound 70, or mice were subjected to X-ray radiation (2.5 Gy) followed by immediately injection of the respective compounds. Control mice were untreated or vehicle treated with or without exposure to X-ray radiation. The testes were removed 12 hrs after treatments and subjected to protein extracts or total RNA preparations for the examination of telomerase activity by TRAP assay, telomerase expression by Western blot and real time PCR. Testes were also taken for immunohistochemical and immunofluorescence analysis with various spermatogenesis markers. Epididymis was also taken for sperm count.

[3] = system: CREM; test: CREM expression in X-ray irradiated testis; type: in vivo, mouse; conditions: X-ray 2.5 Gy then injection, 12 hrs
Description: as §1

[4] = system: ICR mice; test: Sperm count from the epididymis, with or without X-ray radiation; type: in vivo, mouse
Description: as §1, with “The testes were removed 12 hrs after treatments and subjected to protein extracts or total RNA preparations for the examination of telomerase activity by TRAP assay, telomerase expression by Western blot and real time PCR.” left out

[5] = system: sperm; test: Sperm head morphology after X-ray radiation; type: in vivo, mouse; conditions: X-ray 2.5 Gy, single S.C. injection 6 mg/kg, 12 hours
Description: Three-month old mice were irradiated with X-ray (2.5 Gy) and treated with a single S.C. injection of 6 mg/kg of compound 68 or 70. Mice were sacrificed 12 hours later and sperm were removed from the epididymis and stained with eosin. The number of morphologically defective sperm (head morphology) were quantified and presented as a percentage value of the total sperm count (N=6 mice per group) (FIG. 26A). FIG. 26B provides a light micrograph showing healthy and defective sperm head morphology observed. The arrows labeled 1 and 2 point to defective sperm head morphology, and the arrows labeled 3 and 4 point to healthy sperm head morphology

[6] = system: LH; test: LH expression by RT-PCR in pituitary gland cells; type: cell-based, mouse; conditions: 50 nM, vs untreated
Description: (§2) FIGS. 29A, 29B, 29C and 29D: The embodied compounds affect the expression of gonadotropin hormones in pituitary gland cells. Cells (L T2) derived from the mouse pituitary gland were assessed for their secretion of LH and FSH at 6 (FIGS. 29A and 29B) and 12 hours (FIGS. 29C and 29D) following treatment with the indicated embodied compounds (50 nM). FSH and LH expression was determined by RT-PCR, and quantified from 5 different experiments, as assessed for significance, using the t test, one way ANOVA.

[7] = system: FSH; test: FSH expression by RT-PCR in pituitary gland cells; type: cell-based, mouse; conditions: 50 nM
Description: as §2

[8] = biological target: T1, telomerase (Rattus norvegicus, UniProt Q673L6); test: TRAP assay of telomerase activity in granulosa cells; type: cell-based; conditions: 50 nM and 200 nM for 6 hours
T1 construct: Protein extracts prepared from these cells served for telomerase activity measurement; endogenous in cells; host or cells: immortalized rat granulosa cells expressing FSH receptor
Description: (§3) Immortalized rat granulosa cells expressing FSH receptor were treated with either pregnant mare serum gonadotropin (PMSG), or the indicated compounds, or both for 6 hours. Protein extracts prepared from these cells served for telomerase activity measurement using a telomere repeat amplification protocol (TRAP) assay.
(§4) Briefly, protein extract incubated with oligonucleotide, which serves as a template for telomerase (TS), for 45 minutes at 30° C. followed by PCR with reverse primer (ACX) and internal control. PCR products were separated on 4.5% agarose gel. RNA extracts were used for cDNA synthesis and quantitative real time PCR with specific primers to Telomerase reverse transcriptase (TERT), Steroidogenic acute regulatory protein (StAr) and β-actin as a reference gene. To measure progesterone levels secreted by the cells, granulosa cells were cultured with or without 1 IU/mL PMSG and DMSO, Compound 79 50 nM or compound 70 50 nM in the presence of 100 nM dexamethasone. After 24 hours progesterone levels cell-culture medium were determined by radioimmunoassay (RIA). For cell proliferation measurement, 1×10^5 cells were seeded in a 96 wells plate with 1 IU/mL PMSG and DMSO, Compound 79 50 nM or Compound 70 50 nM. After 24 hours cells viability was measured by XTT proliferation assay.

[9] = system: Telomerase reverse transcriptase (TERT); test: TERT relative mRNA levels by qRT-PCR in granulosa cells; type: cell-based, rat; conditions: 50 nM and 200 nM for 6 hours
Description: as §3, §4

[10] = system: Steroidogenic acute regulatory protein (StAr); test: StAr relative mRNA levels by qRT-PCR in granulosa cells; type: cell-based, rat; conditions: 50 nM for 6 hours
Description: as §3, §4

[11] = system: female mice; test: Progesterone levels in mouse serum; type: in vivo; conditions: compared to DMSO or UT, 12 hrs post treatment, P, E, and M stages
Description: Blood samples were taken from the sacrificed mouse and following centrifugation (3800 rpm, 10 min) the serum was sent to the clinical endocrinology laboratory (Soroka University Medical Center, Beer-Sheva, Israel) for determination of progesterone levels.

T1 sequence (Q673L6 whole entry): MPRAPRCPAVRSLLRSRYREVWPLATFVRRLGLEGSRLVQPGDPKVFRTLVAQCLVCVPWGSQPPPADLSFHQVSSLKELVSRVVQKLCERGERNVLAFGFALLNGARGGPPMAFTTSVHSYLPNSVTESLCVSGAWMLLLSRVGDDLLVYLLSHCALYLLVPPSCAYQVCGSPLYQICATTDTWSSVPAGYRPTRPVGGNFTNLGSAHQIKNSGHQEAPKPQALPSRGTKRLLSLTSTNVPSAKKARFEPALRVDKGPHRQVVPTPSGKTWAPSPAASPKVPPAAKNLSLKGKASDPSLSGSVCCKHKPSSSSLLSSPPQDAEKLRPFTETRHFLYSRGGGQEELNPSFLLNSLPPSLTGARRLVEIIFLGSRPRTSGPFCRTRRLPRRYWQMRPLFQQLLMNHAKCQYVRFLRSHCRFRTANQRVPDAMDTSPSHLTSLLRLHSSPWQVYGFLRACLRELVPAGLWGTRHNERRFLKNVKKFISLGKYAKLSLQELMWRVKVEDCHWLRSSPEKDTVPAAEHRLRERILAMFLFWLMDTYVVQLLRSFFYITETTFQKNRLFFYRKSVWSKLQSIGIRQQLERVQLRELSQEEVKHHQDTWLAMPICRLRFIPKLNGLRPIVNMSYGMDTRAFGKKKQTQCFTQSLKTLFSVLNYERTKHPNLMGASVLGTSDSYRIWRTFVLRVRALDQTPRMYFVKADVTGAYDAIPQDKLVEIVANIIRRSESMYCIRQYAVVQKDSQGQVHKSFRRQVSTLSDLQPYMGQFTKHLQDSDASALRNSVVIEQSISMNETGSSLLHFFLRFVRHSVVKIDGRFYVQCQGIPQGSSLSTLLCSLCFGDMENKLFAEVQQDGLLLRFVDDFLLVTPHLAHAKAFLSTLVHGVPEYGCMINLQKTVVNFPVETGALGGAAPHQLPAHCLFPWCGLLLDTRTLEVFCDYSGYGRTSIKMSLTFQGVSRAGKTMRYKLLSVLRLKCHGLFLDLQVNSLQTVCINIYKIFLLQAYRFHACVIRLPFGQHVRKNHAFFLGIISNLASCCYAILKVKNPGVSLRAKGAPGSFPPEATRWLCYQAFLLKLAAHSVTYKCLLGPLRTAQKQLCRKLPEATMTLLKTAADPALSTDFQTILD

CC(c1cc(Br)c(O)c(Br)c1)(c1cc(Br)c(O)c(Br)c1)c1cc(Br)c(O)c(Br)c1 [Compound 68]
ovary histology [1]: a plurality of corpus luteum (CL)
ovary histology (follicles, granulosa cells) [1]: more developed follicles (white arrow) and plurality of layers of granulosa cells (GC) around the oocytes
ovary histology (corpus luteum) [1]: more corpus luteum (CL) than in the control group
morphology of testicular tissue (H&E) [2]: protected the spermatogonia cells layer from the damaging effects of X-ray and the morphology of the testicular tissue remained intact
CREM expression in testis [3]: restored the expression of the spermatogenesis markers
sperm count ([4]; irradiated mice, 9 and 30 days post irradiation): increased sperm count at 9 and 30 days post irradiation
sperm cells number from the epididymis ([4]; non-irradiated mice, 12 hrs post treatment, compared to DMSO): a significant increase
number of defective sperm cells (head morphology) [5]: reduction in the number of defective sperm cells
LH expression ([6]; 12 hours): increased LH production above untreated levels
FSH expression ([7]; 6 hours, vs untreated): decreased FSH expression relative to untreated samples

CCOCc1cc(C(C)(c2cc(COCC)c(O)c(COCC)c2)c2cc(COCC)c(O)c(COCC)c2)cc(COCC)c1O [Compound 79]
telomerase activity (TRAP) [8]: increased expression in a dose-dependent fashion
TERT relative mRNA levels [9]: increased expression in a dose-dependent fashion
expression of StAr [10]: increased expression of StAr
ovary histology [1]: multiple layers of granulosa cells (GC) around the oocytes
ovary histology (follicles, granulosa cells) [1]: more developed follicles (white arrow) and plurality of layers of granulosa cells (GC) around the oocytes
ovary histology (corpus luteum) [1]: more corpus luteum (CL) than in the control group
increase in the secretion of progesterone [11]: up to 5 folds
LH expression ([6]; 6 hours post treatment): increased expression of LH above untreated levels
FSH expression ([7]; 12 hours): decreased FSH levels
